Reference: patent US9663460B2, “Sulfur derivatives as chemokine receptor modulators” (ALLERGAN, INC., priority 2010, dated 2017)

Biological target: CCR2 (Homo sapiens (Human), UniProt P41597)
Experiment: Calcium activity assayed on the FLIPR Tetra in HEK-Gqi5 cells stably expressing CCR2
Type: cell-based
Conditions: FLIPR Tetra calcium assay
Description: HEK-Gqi5 cells stably expressing CCR2 were cultured in (DMEM high glucose, 10% FBS, 1% PSA, 400 μg/ml geneticin and 50 μg/ml hygromycin. Appropriate positive control chemokines (MCP-1, MIP1A or RANTES) was used as the positive control agonist for screening compound-induced calcium activity assayed on the FLIPR^Tetra. The drug plates were prepared in 384-well microplates using the EP3 and the MuItiPROBE robotic liquid handling systems. Compounds were synthesized and tested for CCR^2 activity.

CCR2, sequence (P41597 whole entry, species assumed): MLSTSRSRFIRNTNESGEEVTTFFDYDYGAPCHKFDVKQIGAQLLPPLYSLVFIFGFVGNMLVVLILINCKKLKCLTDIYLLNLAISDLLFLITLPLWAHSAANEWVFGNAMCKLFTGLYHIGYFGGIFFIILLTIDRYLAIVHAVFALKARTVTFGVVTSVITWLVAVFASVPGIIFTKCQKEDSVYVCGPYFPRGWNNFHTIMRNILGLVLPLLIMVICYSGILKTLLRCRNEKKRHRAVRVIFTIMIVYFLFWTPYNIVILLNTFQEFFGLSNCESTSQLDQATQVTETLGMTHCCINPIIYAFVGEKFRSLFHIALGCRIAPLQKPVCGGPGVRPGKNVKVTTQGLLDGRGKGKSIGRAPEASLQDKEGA

| CCR2 % ANTAGONISM | IC50 | Structure (SMILES) |
| --- | --- | --- |
| 95% | 75 nM | O=[N+]([O-])c1ccccc1C[S+]([O-])c1ccc(Cl)cc1NS(=O)(=O)c1cc2ccccc2o1 (stereo not drawn) [N-{5-chloro-2-[(2-nitrobenzyl)sulfinyl]phenyl}-1-benzofuran-2-sulfonamide] |
| 101% | 364 nM | Nc1cc(CS(=O)(=O)c2ccc(Cl)cc2NS(=O)(=O)c2cc3ccccc3o2)ccn1 [N-(2-{[(2-aminopyridin-4-yl)methyl]sulfonyl}-5-chlorophenyl)-1-benzofuran-2-sulfonamide] |
| 79% | 2130 nM | O=C1NCC(C[S+]([O-])c2ccc(Cl)cc2NS(=O)(=O)c2cc3ccccc3o2)O1 (stereo not drawn) [N-(5-chloro-2-{[(2-oxo-1,3-oxazolidin-5-yl)methyl]sulfinyl}phenyl)-1-benzofuran-2-sulfonamide] |
| 54% |  | CN(C)C(=O)CCC[S+]([O-])c1ccc(Cl)cc1NS(=O)(=O)c1cc2ccccc2o1 (stereo not drawn) [4-({2-[(1-benzofuran-2-ylsulfonyl)amino]-4-chlorophenyl}sulfinyl)-N,N-dimethylbutanamide] |
| 103% | 32 nM | Nc1nnc(CSc2ccc(Cl)cc2NS(=O)(=O)c2cc3ccccc3o2)[nH]1 [N-(2-{[(5-amino-4H-1,2,4-triazol-3-yl)methyl]thio}-5-chlorophenyl)-1-benzofuran-2-sulfonamide] |
| 105% | 50 nM | N#Cc1ccc([S+]([O-])Cc2ccccc2)c(NS(=O)(=O)c2cc3ccccc3o2)c1 (stereo not drawn) [N-[2-(benzylsulfinyl)-5-cyanophenyl]-1-benzofuran-2-sulfonamide] |
| 71% | 2030 nM | CSc1ccc(Cl)cc1NS(=O)(=O)c1ccc(I)cc1 [N-[5-chloro-2-(methylthio)phenyl]-4-iodobenzenesulfonamide] |
| 98% | 462 nM | CN(C)C(=O)CS(=O)(=O)c1ccc(Cl)cc1NS(=O)(=O)c1ccc(Cl)c(C(F)(F)F)c1 [2-{[4-chloro-2-({[4-chloro-3-(trifluoromethyl)phenyl]sulfonyl}amino)phenyl]sulfonyl}-N,N-dimethylacetamide] |
| 97% | 54 nM | C[S+]([O-])c1ccc(Cl)cc1NS(=O)(=O)c1ccc(C(F)(F)F)c([N+](=O)[O-])c1 (stereo not drawn) [N-[5-chloro-2-(methylsulfinyl)phenyl]-3-nitro-4-(trifluoromethyl)benzenesulfonamide] |
| 28% | 2420 nM | CC(C)(C)OC(=O)Nc1nc(CSc2ccc(Cl)cc2NS(=O)(=O)c2cc3ccccc3o2)cs1 [tert-butyl {4-[({2-[(1-benzofuran-2-ylsulfonyl)amino]-4-chlorophenyl}thio)methyl]-1,3-thiazol-2-yl}carbamate] |
| 91% | 100 nM | Nc1ccccc1CSc1ccc(Cl)cc1NS(=O)(=O)c1cc2ccccc2o1 [N-{2-[(2-aminobenzyl)thio]-5-chlorophenyl}-1-benzofuran-2-sulfonamide] |
| 84% | 845 nM | COc1ccc([S+]([O-])Cc2cccc([N+](=O)[O-])c2)c(NS(=O)(=O)c2cc3ccccc3o2)c1 (stereo not drawn) [N-{5-methoxy-2-[(3-nitrobenzyl)sulfinyl]phenyl}-1-benzofuran-2-sulfonamide] |
| 89% | 279 nM | Cc1n[nH]c(C)c1CCSc1ccc(Cl)cc1NS(=O)(=O)c1cc2ccccc2o1 [N-(5-chloro-2-{[2-(3,5-dimethyl-1H-pyrazol-4-yl)ethyl]thio}phenyl)-1-benzofuran-2-sulfonamide] |
| 95% | 79 nM | O=S(=O)(Nc1cc(Cl)ccc1[S+]([O-])Cc1cccnc1F)c1cc2ccccc2o1 (stereo not drawn) [N-(5-chloro-2-{[(2-fluoropyridin-3-yl)methyl]sulfinyl}phenyl)-1-benzofuran-2-sulfonamide] |
| 89% | 207 nM | Cc1ccc(S(=O)(=O)Nc2cc(Cl)ccc2S(C)(=O)=O)cc1[N+](=O)[O-] [N-[5-chloro-2-(methylsulfonyl)phenyl]-4-methyl-3-nitrobenzenesulfonamide] |

More lines, now with the values behind:

| Structure (SMILES) | CCR2 % ANTAGONISM | IC50 |
| --- | --- | --- |
| COc1cccc(CSc2ccc(Cl)cc2NS(=O)(=O)c2cc3ccccc3o2)c1 [N-{5-chloro-2-[(3-methoxybenzyl)thio]phenyl}-1-benzofuran-2-sulfonamide] | 85% | 651 nM |
| CC(C)(C)OC(=O)Nc1cccc(C[S+]([O-])c2ccc(Cl)cc2NS(=O)(=O)c2cc3ccccc3o2)n1 (stereo not drawn) [tert-butyl {6-[({2-[(1-benzofuran-2-ylsulfonyl)amino]-4-chlorophenyl}sulfinyl)methyl]pyridin-2-yl}carbamate] | 82% | 527 nM |
| O=S(=O)(Nc1cc(Cl)ccc1SCc1ncc[nH]1)c1cc2ccccc2o1 [N-{5-chloro-2-[(1H-imidazol-2-ylmethyl)thio]phenyl}-1-benzofuran-2-sulfonamide] | 93% | 60 nM |
| O=S(=O)(Nc1cc(Cl)ccc1SCc1c[nH]cn1)c1cc2ccccc2o1 [N-{5-chloro-2-[(1H-imidazol-4-ylmethyl)thio]phenyl}-1-benzofuran-2-sulfonamide] | 100% | 10 nM |
| COC(=O)CC[S+]([O-])c1ccc(Cl)cc1NS(=O)(=O)c1ccc(Cl)c(C(F)(F)F)c1 (stereo not drawn) [methyl 3-{[4-chloro-2-({[4-chloro-3-(trifluoromethyl)phenyl]sulfonyl}amino)phenyl]sulfinyl}propanoate] | 82% | 108 nM |
| CS(=O)(=O)c1ccc(Cl)cc1NS(=O)(=O)c1ccc(I)cc1 [N-[5-chloro-2-(methylsulfonyl)phenyl]-4-iodobenzenesulfonamide] | 92% | 1070 nM |
| Nc1ccccc1C[S+]([O-])c1ccc(Cl)cc1NS(=O)(=O)c1cc2ccccc2o1 (stereo not drawn) [N-{2-[(2-aminobenzyl)sulfinyl]-5-chlorophenyl}-1-benzofuran-2-sulfonamide] | 93% | 115 nM |
| CCS(=O)(=O)c1ccc(Cl)cc1NS(=O)(=O)c1ccc(Cl)c(C(F)(F)F)c1 [4-chloro-N-[5-chloro-2-(ethylsulfonyl)phenyl]-3-(trifluoromethyl)benzenesulfonamide] | 90% | 88 nM |
| O=S(=O)(Nc1cc(Cl)ccc1SCc1ccccc1)c1cc2ccccc2o1 [N-[2-(benzylthio)-5-chlorophenyl]-1-benzofuran-2-sulfonamide] | 90% | 129 nM |
| Cc1ccc(S(=O)(=O)Nc2cc(Cl)ccc2[S+](C)[O-])o1 (stereo not drawn) [N-[5-chloro-2-(methylsulfinyl)phenyl]-5-methylfuran-2-sulfonamide] | 76% | 194 nM |
| CS(=O)(=O)c1ccc(Cl)cc1NS(=O)(=O)c1cccc(Cl)c1F [3-chloro-N-[5-chloro-2-(methylsulfonyl)phenyl]-2-fluorobenzenesulfonamide] | 101% | 116 nM |
| O=S(=O)(Nc1cc(Cl)ccc1[S+]([O-])Cc1ccccc1)c1cc2ccccc2o1 (stereo not drawn) [N-[2-(benzylsulfinyl)-5-chlorophenyl]-1-benzofuran-2-sulfonamide] | 85% | 27 nM |
| O=[N+]([O-])c1cc(C[S+]([O-])c2ccc(Cl)cc2NS(=O)(=O)c2cc3ccccc3o2)n[nH]1 (stereo not drawn) [N-(5-chloro-2-{[(5-nitro-1H-pyrazol-3-yl)methyl]sulfinyl}phenyl)-1-benzofuran-2-sulfonamide] | 94% | 752 nM |
| O=S(=O)(CCc1ccccn1)c1ccc(Cl)cc1NS(=O)(=O)c1cc2ccccc2o1 [N-{5-chloro-2-[(2-pyridin-2-ylethyl)sulfonyl]phenyl}-1-benzofuran-2-sulfonamide] | 93% | 197 nM |
| C[S+]([O-])c1ccc(Cl)cc1NS(=O)(=O)c1cc2cc(Cl)ccc2o1 (stereo not drawn) [5-chloro-N-[5-chloro-2-(methylsulfinyl)phenyl]-1-benzofuran-2-sulfonamide] | 92% | 655 nM |
| CN(C)CCC[S+]([O-])c1ccc(Cl)cc1NS(=O)(=O)c1cc2ccccc2o1 (stereo not drawn) [N-(5-chloro-2-{[3-(dimethylamino)propyl]sulfinyl}phenyl)-1-benzofuran-2-sulfonamide] | 81% |  |
| Nc1cccc(C[S+]([O-])c2ccc(Cl)cc2NS(=O)(=O)c2ccccc2)c1 (stereo not drawn) [N-{2-[(3-aminobenzyl)sulfinyl]-5-chlorophenyl}benzenesulfonamide] | 62% | 2560 nM |
| CC(=O)Nc1nc(C[S+]([O-])c2ccc(Cl)cc2NS(=O)(=O)c2cc3ccccc3o2)cs1 (stereo not drawn) [Compound 236, N-{-4-[({2-[(1-benzofuran-2-ylsulfonyl)amino]-4-chlorophenyl}sulfinyl)methyl]-1,3-thiazol-2-yl}acetamide] | 79% | 2680 nM |
| CN(C)C(=O)CC[S+]([O-])c1ccc(Cl)cc1NS(=O)(=O)c1ccc(Cl)c(C(F)(F)F)c1 (stereo not drawn) [3-{[4-chloro-2-({[4-chloro-3-(trifluoromethyl)phenyl]sulfonyl}amino)phenyl]sulfinyl}-N,N-dimethylpropanamide] | 89% | 96 nM |
| CN(C)C(=O)CCS(=O)(=O)c1ccc(Cl)cc1NS(=O)(=O)c1ccc(Cl)c(C(F)(F)F)c1 [3-{[4-chloro-2-({[4-chloro-3-(trifluoromethyl)phenyl]sulfonyl}amino)phenyl]sulfonyl}-N,N-dimethylpropanamide] | 93% | 217 nM |
| O=S(=O)(Nc1cc(Cl)ccc1[S+]([O-])Cc1ccccn1)c1cc2ccccc2o1 (stereo not drawn) [N-{5-chloro-2-[(pyridin-2-ylmethyl)sulfinyl]phenyl}-1-benzofuran-2-sulfonamide] | 100% | 29 nM |
| O=[N+]([O-])c1ccc(CSc2ccc(Cl)cc2NS(=O)(=O)c2cc3ccccc3o2)cc1 [N-{5-chloro-2-[(4-nitrobenzyl)thio]phenyl}-1-benzofuran-2-sulfonamide] | 82% | 147 nM |
